According to the supplement of paper PMC10307832:

Key:
Test in all cases: relative viability (nuclei count vs DMSO), 5 days (fraction); higher = more cells survive
[1] = compound: CC(C)C[C@@H](C(=O)N[C@H](C(=O)OC1CCCC1)c1ccccc1)[C@H](O)C(=O)NO [Tosedostat] + COc1cccc2cc(-c3nc([C@H]4CC[C@H](C(=O)O)CC4)n4ncnc(N)c34)[nH]c12 [OSI-027] (partner 0.5 µM)
How it was run: (§1)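 A single step with final 0.05% Triton X-100, 1% formaldehyde and 1 ug/ml Hoechst fixed the cells and stained nuclei 5 days after treatment. Lung cancer cell lines in 1536-well plates had been treated by pin tool the day after seeding with one drug alone or a fixed anchor-drug dose plus five library-drug doses (not always all listed) in √10 steps, and nuclei were counted on 4× images. Relative viability is the ratio of nuclei in treated wells to nuclei in vehicle wells, taken as the median of duplicate plates.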

[2] = compound: CC(C)C[C@@H](C(=O)N[C@H](C(=O)OC1CCCC1)c1ccccc1)[C@H](O)C(=O)NO [Tosedostat] + Cc1cc(Nc2cc(N3CCN(C)CC3)nc(Sc3ccc(NC(=O)C4CC4)cc3)n2)n[nH]1 [Tozasertib] (partner 0.1 µM)
How it was run: as §1

[3] = compound: CC(C)C[C@@H](C(=O)N[C@H](C(=O)OC1CCCC1)c1ccccc1)[C@H](O)C(=O)NO [Tosedostat] + C[C@]1(O)C[C@@H](c2nc(-c3ccc4ccc(-c5ccccc5)nc4c3)c3c(N)nccn32)C1 [Linsitinib] (partner 1 µM)
How it was run: as §1

[4] = compound: CC(C)C[C@@H](C(=O)N[C@H](C(=O)OC1CCCC1)c1ccccc1)[C@H](O)C(=O)NO [Tosedostat] + CS(=O)(=O)N1CCN(Cc2cc3nc(-c4cccc5[nH]ncc45)nc(N4CCOCC4)c3s2)CC1 [Pictilisib] (partner 1 µM)
How it was run: as §1

NCI-H2347
relative viability ([1]; first compound 0.02 µM): 0.364 | relative viability ([1]; first compound 0.06325 µM): 0.203 | relative viability ([1]; first compound 0.2 µM): 0.459 | relative viability ([1]; first compound 0.6325 µM): 0.353 | relative viability ([1]; first compound 2 µM): 0.427 | relative viability ([2]; first compound 0.02 µM): 0.519 | relative viability ([2]; first compound 0.06325 µM): 0.509 | relative viability ([2]; first compound 0.2 µM): 0.504 | relative viability ([2]; first compound 0.6325 µM): 0.435 | relative viability ([2]; first compound 2 µM): 0.41 | relative viability ([3]; first compound 0.02 µM): 0.989 | relative viability ([3]; first compound 0.06325 µM): 0.967 | relative viability ([3]; first compound 0.2 µM): 0.992 | relative viability ([3]; first compound 0.6325 µM): 0.949 | relative viability ([3]; first compound 2 µM): 0.975 | relative viability ([4]; first compound 0.02 µM): 0.659 | relative viability ([4]; first compound 0.06325 µM): 0.662 | relative viability ([4]; first compound 0.2 µM): 0.554 | relative viability ([4]; first compound 0.6325 µM): 0.771 | relative viability ([4]; first compound 2 µM): 0.552

NCI-H2405
relative viability ([1]; first compound 0.02 µM): 0.662 | relative viability ([1]; first compound 0.06325 µM): 0.637 | relative viability ([1]; first compound 0.2 µM): 0.707 | relative viability ([1]; first compound 0.6325 µM): 0.596 | relative viability ([1]; first compound 2 µM): 0.585 | relative viability ([2]; first compound 0.02 µM): 0.764 | relative viability ([2]; first compound 0.06325 µM): 0.737 | relative viability ([2]; first compound 0.2 µM): 0.76 | relative viability ([2]; first compound 0.6325 µM): 0.667 | relative viability ([2]; first compound 2 µM): 0.612 | relative viability ([3]; first compound 0.02 µM): 0.883 | relative viability ([3]; first compound 0.06325 µM): 0.963 | relative viability ([3]; first compound 0.2 µM): 0.925 | relative viability ([3]; first compound 0.6325 µM): 0.965 | relative viability ([3]; first compound 2 µM): 0.862 | relative viability ([4]; first compound 0.02 µM): 0.578 | relative viability ([4]; first compound 0.06325 µM): 0.499 | relative viability ([4]; first compound 0.2 µM): 0.478 | relative viability ([4]; first compound 0.6325 µM): 0.467 | relative viability ([4]; first compound 2 µM): 0.445

NCI-H3122
relative viability ([1]; first compound 0.02 µM): 1.15 | relative viability ([1]; first compound 0.06325 µM): 0.985 | relative viability ([1]; first compound 0.2 µM): 1.01 | relative viability ([1]; first compound 0.6325 µM): 0.963 | relative viability ([1]; first compound 2 µM): 0.588 | relative viability ([2]; first compound 0.02 µM): 0.413 | relative viability ([2]; first compound 0.06325 µM): 0.4 | relative viability ([2]; first compound 0.2 µM): 0.393 | relative viability ([2]; first compound 0.6325 µM): 0.388 | relative viability ([2]; first compound 2 µM): 0.306 | relative viability ([3]; first compound 0.02 µM): 0.993 | relative viability ([3]; first compound 0.06325 µM): 1 | relative viability ([3]; first compound 0.2 µM): 1.01 | relative viability ([3]; first compound 0.6325 µM): 1.02 | relative viability ([3]; first compound 2 µM): 1.04 | relative viability ([4]; first compound 0.02 µM): 0.663 | relative viability ([4]; first compound 0.06325 µM): 0.659 | relative viability ([4]; first compound 0.2 µM): 0.615 | relative viability ([4]; first compound 0.6325 µM): 0.692 | relative viability ([4]; first compound 2 µM): 0.704

PC-3 [JPC-3]
relative viability ([1]; first compound 0.02 µM): 0.693 | relative viability ([1]; first compound 0.06325 µM): 0.828 | relative viability ([1]; first compound 0.2 µM): 0.73 | relative viability ([1]; first compound 0.6325 µM): 0.614 | relative viability ([1]; first compound 2 µM): 0.609 | relative viability ([2]; first compound 0.02 µM): 0.892 | relative viability ([2]; first compound 0.06325 µM): 0.954 | relative viability ([2]; first compound 0.2 µM): 0.87 | relative viability ([2]; first compound 0.6325 µM): 0.802 | relative viability ([2]; first compound 2 µM): 0.571 | relative viability ([3]; first compound 0.02 µM): 1.03 | relative viability ([3]; first compound 0.06325 µM): 1 | relative viability ([3]; first compound 0.2 µM): 1 | relative viability ([3]; first compound 0.6325 µM): 0.946 | relative viability ([3]; first compound 2 µM): 0.653 | relative viability ([4]; first compound 0.02 µM): 0.756 | relative viability ([4]; first compound 0.06325 µM): 0.771 | relative viability ([4]; first compound 0.2 µM): 0.602 | relative viability ([4]; first compound 0.6325 µM): 0.576 | relative viability ([4]; first compound 2 µM): 0.501

PC-14
relative viability ([1]; first compound 0.02 µM): 0.959 | relative viability ([1]; first compound 0.06325 µM): 0.818 | relative viability ([1]; first compound 0.2 µM): 0.637 | relative viability ([1]; first compound 0.6325 µM): 0.5 | relative viability ([1]; first compound 2 µM): 0.449 | relative viability ([2]; first compound 0.02 µM): 0.586 | relative viability ([2]; first compound 0.06325 µM): 0.562 | relative viability ([2]; first compound 0.2 µM): 0.52 | relative viability ([2]; first compound 0.6325 µM): 0.51 | relative viability ([2]; first compound 2 µM): 0.399 | relative viability ([3]; first compound 0.02 µM): 0.97 | relative viability ([3]; first compound 0.06325 µM): 0.973 | relative viability ([3]; first compound 0.2 µM): 0.982 | relative viability ([3]; first compound 0.6325 µM): 0.915 | relative viability ([3]; first compound 2 µM): 0.918 | relative viability ([4]; first compound 0.02 µM): 0.789 | relative viability ([4]; first compound 0.06325 µM): 0.647 | relative viability ([4]; first compound 0.2 µM): 0.555 | relative viability ([4]; first compound 0.6325 µM): 0.385 | relative viability ([4]; first compound 2 µM): 0.458

RERF-LC-KJ
relative viability ([1]; first compound 0.02 µM): 0.588 | relative viability ([1]; first compound 0.06325 µM): 0.586 | relative viability ([1]; first compound 0.2 µM): 0.486 | relative viability ([1]; first compound 0.6325 µM): 0.452 | relative viability ([1]; first compound 2 µM): 0.418 | relative viability ([2]; first compound 0.02 µM): 0.553 | relative viability ([2]; first compound 0.06325 µM): 0.462 | relative viability ([2]; first compound 0.2 µM): 0.403 | relative viability ([2]; first compound 0.6325 µM): 0.304 | relative viability ([2]; first compound 2 µM): 0.293 | relative viability ([3]; first compound 0.02 µM): 0.933 | relative viability ([3]; first compound 0.06325 µM): 0.875 | relative viability ([3]; first compound 0.2 µM): 0.854 | relative viability ([3]; first compound 0.6325 µM): 0.839 | relative viability ([3]; first compound 2 µM): 0.795 | relative viability ([4]; first compound 0.02 µM): 0.463 | relative viability ([4]; first compound 0.06325 µM): 0.647 | relative viability ([4]; first compound 0.2 µM): 0.45 | relative viability ([4]; first compound 0.6325 µM): 0.471 | relative viability ([4]; first compound 2 µM): 0.433

SK-LU-1
relative viability ([1]; first compound 0.02 µM): 0.43 | relative viability ([1]; first compound 0.06325 µM): 0.348 | relative viability ([1]; first compound 0.2 µM): 0.337 | relative viability ([1]; first compound 0.6325 µM): 0.297 | relative viability ([1]; first compound 2 µM): 0.329 | relative viability ([2]; first compound 0.02 µM): 0.356 | relative viability ([2]; first compound 0.06325 µM): 0.282 | relative viability ([2]; first compound 0.2 µM): 0.275 | relative viability ([2]; first compound 0.6325 µM): 0.285 | relative viability ([2]; first compound 2 µM): 0.225 | relative viability ([3]; first compound 0.02 µM): 1.1 | relative viability ([3]; first compound 0.06325 µM): 1.07 | relative viability ([3]; first compound 0.2 µM): 0.9 | relative viability ([3]; first compound 0.6325 µM): 0.855 | relative viability ([3]; first compound 2 µM): 0.906 | relative viability ([4]; first compound 0.02 µM): 0.688 | relative viability ([4]; first compound 0.06325 µM): 0.728 | relative viability ([4]; first compound 0.2 µM): 0.505 | relative viability ([4]; first compound 0.6325 µM): 0.604 | relative viability ([4]; first compound 2 µM): 0.485

SK-MES-1
relative viability ([1]; first compound 0.02 µM): 0.532 | relative viability ([1]; first compound 0.06325 µM): 0.59 | relative viability ([1]; first compound 0.2 µM): 0.595 | relative viability ([1]; first compound 0.6325 µM): 0.538 | relative viability ([1]; first compound 2 µM): 0.396 | relative viability ([2]; first compound 0.02 µM): 1.01 | relative viability ([2]; first compound 0.06325 µM): 0.822 | relative viability ([2]; first compound 0.2 µM): 0.95 | relative viability ([2]; first compound 0.6325 µM): 0.801 | relative viability ([2]; first compound 2 µM): 0.61 | relative viability ([3]; first compound 0.02 µM): 1.2 | relative viability ([3]; first compound 0.06325 µM): 1.05 | relative viability ([3]; first compound 0.2 µM): 1.06 | relative viability ([3]; first compound 0.6325 µM): 1.01 | relative viability ([3]; first compound 2 µM): 0.983 | relative viability ([4]; first compound 0.02 µM): 0.382 | relative viability ([4]; first compound 0.06325 µM): 0.317 | relative viability ([4]; first compound 0.2 µM): 0.381 | relative viability ([4]; first compound 0.6325 µM): 0.315 | relative viability ([4]; first compound 2 µM): 0.311

SW 1573
relative viability ([1]; first compound 0.02 µM): 0.653 | relative viability ([1]; first compound 0.06325 µM): 0.517 | relative viability ([1]; first compound 0.2 µM): 0.558 | relative viability ([1]; first compound 0.6325 µM): 0.479 | relative viability ([1]; first compound 2 µM): 0.482 | relative viability ([2]; first compound 0.02 µM): 0.183 | relative viability ([2]; first compound 0.06325 µM): 0.193 | relative viability ([2]; first compound 0.2 µM): 0.205 | relative viability ([2]; first compound 0.6325 µM): 0.219 | relative viability ([2]; first compound 2 µM): 0.157 | relative viability ([3]; first compound 0.02 µM): 0.828 | relative viability ([3]; first compound 0.06325 µM): 0.973 | relative viability ([3]; first compound 0.2 µM): 0.826 | relative viability ([3]; first compound 0.6325 µM): 0.841 | relative viability ([3]; first compound 2 µM): 0.551 | relative viability ([4]; first compound 0.02 µM): 0.477 | relative viability ([4]; first compound 0.06325 µM): 0.485 | relative viability ([4]; first compound 0.2 µM): 0.484 | relative viability ([4]; first compound 0.6325 µM): 0.485 | relative viability ([4]; first compound 2 µM): 0.388
